Results on one compound are retold here after patent US7371776B2, “Methods and compositions for treating cancer” (Mars, Incorporated, priority 2004, dated 2008).

Common to all, as to format: cell-based, human
The test system of one assay is 184B5 cells. As to the kind of experiment: Crystal violet cellular proliferation assay. Particulars: 100 μg/mL. On the procedure:
The 184B5 line is an immortalized, non-tumorogenic cell line derived from primary cultures of HMECs immortalized with benzo(a)pyrene (provided by Dr. M. R. Stampfer) and was maintained in Clonetics mammary epithelial cells medium (MEGM).
One×10^3 cells per well were seeded in 96 well dishes (Coming Costar, Cambridge, Mass.). Primary cultures of HMECs, A1N4 and 184B5 cells were evaluated at two different cell densities (seeded at 1×10^3 and 2×10^3 per well). After 24 hours of cell attachment, cells in triplicate wells were treated with pentamer at a concentration of 100 μg/mL. The cells on the same plate were treated with corresponding controls: (i) media containing DMSO, and (ii) media with no additions.
Cells were treated for 1, 2, 3, 6, 8 and 10 days, but in some cases, the samples were collected at days 2, 3, 4, 7 and 10 post-treatment. Each treatment was conducted in triplicate. Samples were collected at each time point as follows: media was removed and 50 μL of crystal violet solution (0.1% of crystal violet in 0.1 M citric acid solution) was added to each well at room temperature and plates were incubated for 15 minutes, followed by washing with deionized water. […] The optical density (OD) of samples was read at 550 nm on an Ultramark Microplate Imagining System (BioRad, Philadelphia, Pa.). […] Statistical significance was determined using the t test analysis.

A further assay deals with p53. As to the kind of experiment: Confirmation of LPS results by immunoblotting, MDA MB-231 cells. How it is done:
(§1) The proteins affected by pentamer, as detected by LPS, were analyzed further by immunoblotting. Antibodies against the following proteins were used: Cdc2 (Tyr15), FKHR (Ser256), p53 (Ser37, Ser46 and Ser392), PKC-δ (Ser643), PKC-θ (Ser643/676), pRb (Ser795 and Ser807/811), SAPK/JNK (Thr183/Tyr185) and Stat 5 (Tyr694) (all antibodies were obtained from Cell Signaling).
(§2) Protein pellets from pentamer-treated MDA MB-231, MDA MB-468 and MCF-7 cells and corresponding DMSO-treated controls were lysed in PBS with 1% SDS and sonicated for 15 seconds at a power of five watts. Samples were then centrifuged at 10,000 rpm and supernatants transferred into clean tubes. Protein concentration was determined as descried above. Ten jig of each protein sample was separated by PAGE on 4-20% gradient gels (BioRad, Philadelphia, Pa.). Gels were either transferred to PVDF membranes (BioRad) or P-FILM membrane (stacks of 10 membranes) according to the manufacturer's instructions (20/20 Gene Systems). PVDF membranes were blocked for 1 hour in 0.5% casein solution (Vector Laboratories, Burlingame, Calif.), prior to incubation with primary antibodies. […] The membranes were incubated overnight at 4° C. in 1:500 dilutions of primary antibodies, washed three times in TBST for five minutes, incubated in HRP-conjugated secondary antibodies, washed again and incubated in ECL Plus Reagent (Amersham). Signals were visualized on BIOMAX MR film (Kodak, Rochester, N.Y.). Following incubation with primary antibodies, membranes were incubated in anti-GAPDH antibody (1:500 dilution; Chemicon, Temecula, Calif.). The presence of this protein was visualized with secondary antibody conjugated to alkaline phosphatase DuoLux substrate (Vector Laboratories).
(§3) As a control, the PVDF membranes probed for Cdc2, FKHR, p53, and pRb were stripped according to manufacturer's instructions (Cell Signaling). After striping, membranes were washed four times for five minutes each in TBST buffer, blocked as described above, washed again and incubated in primary antibodies overnight at 4° C. The primary antibodies used were anti-total Cdc2 (1:1000 dilution, Cell Signaling), anti-total FKHR (1:1000 dilution, Cell Signaling), anti-endogenous p53 (1:1000, Cell Signaling) and anti-endogenous pRb (1:1000, Santa Cruz). The next day, membranes were washed and incubated in HRP conjugated secondary antibodies, washed again and incubated in ECL Plus Reagent (Amersham). Signals were detected as previously described. To test equality of loading, membranes were probed with anti-GAPDH antibody (1:500 dilution; Chemicon, Temecula, Calif.) as described above.
A general note: Immunoblotting shows a protein as a band on a membrane.

In the next assay the test system is pRb. Described as above. On the procedure: as §1, §2, §3
The test system of a further assay is FKHR. Described as above. On the procedure:
as §1, §2, §3

A further assay concerns Cdc2. The description is as above. On the procedure: as §1, §2, §3
Setting [1] is: LPS analysis and PVDF membrane experiments.

Turning to `Oc1cc(O)c2c(c1)O[C@H](c1ccc(O)c(O)c1)[C@H](O)[C@H]2c1c(O)cc(O)c2c1O[C@H](c1ccc(O)c(O)c1)[C@H](O)[C@H]2c1c(O)cc(O)c2c1O[C@H](c1ccc(O)c(O)c1)[C@H](O)[C@H]2c1c(O)cc(O)c2c1O[C@H](c1ccc(O)c(O)c1)[C@H](O)[C@H]2c1c(O)cc(O)c2c1O[C@H](c1ccc(O)c(O)c1)[C@H](O)C2` [pentamer, pentameric procyanidin], in the assay with 184B5 cells, the “day post-treatment at which significant sensitivity to pentamer was exhibited” value is 10 days and the “growth inhibited, in comparison to DMSO-treated controls” value is 2.8 fold. Moreover, the “total protein expression of p53” value with p53 (setting [1]) is recorded as “not affected”. For the same compound, in the assay on p53 (immunoblot, 72 hrs), the “effect on phosphorylated form of p53 (Ser37, Ser46 and Ser392)” value is listed as “had an effect”. In addition, in the assay on pRb (PVDF membrane reprobed), the “pRb, both total and phospho-specific sites” value is “affected”. Besides, the “effect on phosphorylated form of pRb (Ser795 and Ser807/811)” value in the assay on pRb (immunoblot, 48 and 72 hr) was “had an effect”. Also, the “total protein expression of FKHR” value with FKHR (setting [1]) was “not affected”. Besides, in the assay with FKHR (immunoblot, 48 and 72 hrs), the “effect on phosphorylated form of FKHR (Ser256)” value is on record as “had an effect”. The “total protein expression of Cdc2” value in the assay with Cdc2 (setting [1]) is on record as “not affected”. Also, the “effect on phosphorylated form of Cdc2 (Tyr15)” value in the assay with Cdc2 (immunoblot, 48 and 72 hrs) is “had an effect”.
